Assay results taken from patent US8357406B2, “Method for preparing raw material for functional foods from barley or wheat seeds” (priority 2009, dated 2013).

What was measured:
Type in all cases: biochemical
[1] = DPPH radical scavenging activity; conditions: 0.4 mM DPPH, room temperature 10 min, absorbance 517 nm; average±SD of three measurements
Description: For use in this assay, the samples prepared in the Examples and Comparative Examples were lyophilised and/or dried and pulverized into powders.
The samples were evaluated for DPPH radical scavenging activity according to the Brand-Williams method (Brand-Williams et al., Use of a free radical method to evaluate antioxidant activity. Food Sci. Technol. 28(1): 25-30, (1995)). The samples were added at various concentrations to 0.4 mM DPPH which was then incubated at room temperature for 10 min, followed by measuring absorbance at 517 nm.
(§1) The data are average±standard deviation of three measurements.
For the positive control, the commercially available antioxidant BHA ([…], butylated hydroxy anisole) was employed.

[2] = Superoxide anion radical scavenging activity (NBT reduction method, xanthine/xanthine oxidase system); conditions: 25 mU/mL xanthine oxidase, 0.05 mM xanthine, 0.6 mM NBT, 25° C. 20 min, absorbance 560 nm; average±SD of three measurements
Description: Superoxide anion radical scavenging activity was evaluated by the NBT (nitro blue tetrazolium) reduction method in which NBT is reduced by the superoxide anion radicals formed in a xanthine/xanthine oxydase system.
Along with 25 mU/mL of xanthine oxidase, the samples were added at various concentrations to 1.5 mL of a reaction solution containing 50 mM potassium phosphate buffer (pH 7.8), 0.05 mM xanthine, and 0.6 mM NBT, and incubated at 25° C. for 20 min before measuring absorbance at 560 nm.
as §1
For a positive control, the commercially available antioxidant BHA ([…], butylated hydroxy anisole) was employed.

xanthine oxidase = xanthine oxidase (Homo sapiens, UniProt P47989); assay: Inhibitory activity against xanthine oxidase (uric acid production, absorbance at 290 nm); conditions: samples 1 mg/mL, 50 mU/ml xanthine oxidase; average±SD of three measurements
Description: Inhibitory activity against xanthine oxidase was evaluated by the level of the uric acid produced in the xanthine/xanthine oxidase system, which can be quantitatively analyzed by absorbance at 290 nm.
100 μL of 200 mM phosphate buffer (pH 7.5) containing 0.5 mM xanthine and 1 mM EDTA was mixed with 100 μL of the samples (1 mg/mL) to which 50 mU/ml xanthine oxidase was then added to induce the production of uric acid. The produced uric acid was quantitatively analyzed by absorbance at 290 nm.
Allopurinol, a xanthine […] inhibitor used to treat gout, was used as a positive control.

Sequence of xanthine oxidase (P47989 whole entry, species assumed): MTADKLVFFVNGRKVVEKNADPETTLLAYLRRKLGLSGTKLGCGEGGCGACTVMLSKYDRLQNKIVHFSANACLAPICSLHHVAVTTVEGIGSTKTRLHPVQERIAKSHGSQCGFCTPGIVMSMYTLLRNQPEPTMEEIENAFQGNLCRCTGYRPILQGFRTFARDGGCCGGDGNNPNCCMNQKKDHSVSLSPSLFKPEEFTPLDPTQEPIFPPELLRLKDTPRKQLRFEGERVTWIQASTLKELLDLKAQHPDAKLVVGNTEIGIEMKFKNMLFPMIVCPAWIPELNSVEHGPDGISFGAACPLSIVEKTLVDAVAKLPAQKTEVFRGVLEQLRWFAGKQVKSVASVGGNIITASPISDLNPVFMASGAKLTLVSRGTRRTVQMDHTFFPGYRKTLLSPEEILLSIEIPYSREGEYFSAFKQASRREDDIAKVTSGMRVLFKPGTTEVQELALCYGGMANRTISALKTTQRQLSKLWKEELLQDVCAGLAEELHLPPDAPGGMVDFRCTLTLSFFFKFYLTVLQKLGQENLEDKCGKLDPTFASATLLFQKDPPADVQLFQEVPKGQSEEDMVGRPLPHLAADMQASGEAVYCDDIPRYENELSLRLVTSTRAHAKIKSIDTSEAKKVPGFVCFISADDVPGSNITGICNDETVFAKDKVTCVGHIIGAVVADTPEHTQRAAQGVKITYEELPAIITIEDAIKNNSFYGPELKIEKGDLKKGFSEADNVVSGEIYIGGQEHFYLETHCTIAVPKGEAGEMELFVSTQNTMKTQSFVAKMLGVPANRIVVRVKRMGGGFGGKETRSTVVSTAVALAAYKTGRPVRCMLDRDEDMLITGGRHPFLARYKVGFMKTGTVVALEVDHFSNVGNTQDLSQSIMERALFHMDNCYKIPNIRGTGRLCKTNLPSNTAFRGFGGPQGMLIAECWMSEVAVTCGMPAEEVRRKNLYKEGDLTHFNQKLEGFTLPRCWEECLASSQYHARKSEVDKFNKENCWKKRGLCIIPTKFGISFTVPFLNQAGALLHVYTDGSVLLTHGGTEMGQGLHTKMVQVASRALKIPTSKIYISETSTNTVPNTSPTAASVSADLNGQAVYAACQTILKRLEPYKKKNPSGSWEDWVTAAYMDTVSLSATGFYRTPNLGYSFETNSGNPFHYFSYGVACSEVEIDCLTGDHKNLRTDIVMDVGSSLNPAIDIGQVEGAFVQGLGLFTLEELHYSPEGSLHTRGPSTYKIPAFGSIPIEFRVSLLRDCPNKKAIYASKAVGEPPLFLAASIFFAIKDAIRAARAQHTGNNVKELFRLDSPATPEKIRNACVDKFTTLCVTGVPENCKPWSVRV

Row | SMILES | DPPH Radical Scavenging Activity IC50 [1] | Superoxide Anion Radical Scavenging Activity IC50 [2] | Xanthine oxidase Inhibition (%) (xanthine oxidase)
1 | COc1ccc(O)c(C(C)(C)C)c1 [BHA, butylated hydroxy anisole] | 620 ± 110 µg/mL | 1120 ± 240 µg/mL | 
2 | Oc1ncnc2[nH]ncc12 [Allopurinol] |  |  | 88.2 ± 2.1%
